Test results taken from PMC12074917, “Molecular pharmacokinetic mechanism of JBP485 against aristolochic acid I (AAI) -induced nephrotoxicity” (Frontiers in Pharmacology, 2025).

Tests used:
[1] = In vivo renal clearance / pharmacokinetics of AAI after intravenous administration with or without JBP485; design: species or system rat; conditions: rats, i.v.
Experimental: Rats were randomly assigned to an AAI (4 mg/kg) group or an AAI (4 mg/kg) + JBP485 (50 mg/kg) group (n = 5 per group). The drugs were diluted in normal saline and administered intravenously via the left jugular vein. Subsequently, blood samples (0.2 mL) were collected via the right jugular vein with heparinized syringes at 1, 3, 5, 10, 30, 60, 120, 240, 360, and 480 min post-treatment. Isotonic saline solution (0.2 mL) was injected after each blood sample collection. Urine was collected directly from the bladder at 2, 4, 6, and 8 h after drug administration. AAI concentrations were measured by LC–MS/MS. Pharmacokinetic parameters, renal clearance (CLR), and cumulative urinary excretion were calculated.
(§1) The concentrations of the test compounds in plasma, urine, and cell lysates were determined using an Agilent HP1200 liquid chromatography system (Agilent Technology Inc., SC, CA, United States) and an API 3200 triple-quadrupole mass spectrometer (Applied Biosystems, SC, CA, United States). After protein precipitation using acetonitrile, the analyte was separated on a Hypersil BDS C18 column. The mobile phase consisted of acetonitrile and water containing 0.1% (v/v) formic acid (80:20, v/v). The flow rate was 0.4 mL/min. The mass spectrometer was equipped with an electrospray ionization (ESI) source. Data were acquired in positive ion mode and dynamic multiple reaction monitoring (MRM) mode. The ESI source conditions were as follows: ion spray voltage, 5.5 kV; ion source temperature, 600°C; Gas source 1 (GS1, N2) pressure, 50 psi; Gas source 2 (GS2, N2) pressure, 60 psi; curtain gas (CUR) pressure, 12 psi; and collision gas (CAD) pressure, 10 psi. EP and CXP were set at […] for all analytes. The scan range was m/z 359.9→298.1 for AAI and m/z 130.0→71.2 for IS (Internal Standard, metformin). […] Intra- and inter-day precision was lower than 4.5% with reference to relative standard deviation, while accuracy was within ±6.5% in terms of relative error for analytes. Analyst software (version 1.4.1) was used for equipment control and data acquisition and analysis.

hOAT3 = biological target: T1, hOAT3 (Homo sapiens, UniProt Q8TCC7); assay: Uptake of AAI by hOAT3-transfected HEK293 cells with or without JBP485; format: cell-based
T1 construct: expressed in transfected cells; host or cells: HEK293
T1 sequence (Q8TCC7 1-542): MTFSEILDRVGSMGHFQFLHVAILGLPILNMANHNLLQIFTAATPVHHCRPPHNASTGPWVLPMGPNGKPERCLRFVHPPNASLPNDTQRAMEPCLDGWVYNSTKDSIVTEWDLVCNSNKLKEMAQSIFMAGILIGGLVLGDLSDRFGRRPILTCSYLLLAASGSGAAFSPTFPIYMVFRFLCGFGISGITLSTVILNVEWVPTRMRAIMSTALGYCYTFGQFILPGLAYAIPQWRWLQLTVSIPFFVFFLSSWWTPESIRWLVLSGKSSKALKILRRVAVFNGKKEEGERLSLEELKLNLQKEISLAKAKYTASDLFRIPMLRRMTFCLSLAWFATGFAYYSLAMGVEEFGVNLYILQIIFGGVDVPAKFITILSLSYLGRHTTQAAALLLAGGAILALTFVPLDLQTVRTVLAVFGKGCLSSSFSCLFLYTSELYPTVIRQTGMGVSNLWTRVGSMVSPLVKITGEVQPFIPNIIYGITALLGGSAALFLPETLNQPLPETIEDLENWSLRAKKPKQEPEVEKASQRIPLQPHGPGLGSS
Experimental: Uptake experiments with hOAT1/3-HEK293 cells were performed as previously described ([Zhu et al., 2020]). Uptake was initiated by adding transport buffer (1 mL) with AAI (1 μM) and/or JBP485 (500 μM) after the cells were washed twice and incubated with transport buffer at 37°C. Moreover, the concentration-dependent uptake of AAI and the effects of JBP485 on AAI uptake were examined. Uptake was terminated upon the removal of the medium. The cells were washed three times with 1 mL of ice-cold Hanks’ balanced salt solution, lysed with 0.3 mL of 0.1% (v/v) Triton X-100, and then transferred to a polythene tube for quantification by LC-MS/MS. The protein level was measured using the BCA method (Solarbio, Beijing, China) with bovine serum albumin serving as the standard.
as §1

NRK-52E cells [2] = assay: CCK-8 cell viability assay; format: cell-based, rat
Experimental: AAI was prepared to make a series of working dilutions in serum-free DMEM. The NRK-52E cells were plated in 96-well plates at a density of 5 ×10^4 cells/mL for 24 h at 37 °C and then challenged with various concentrations of AAI (0, 1, 2, 4, 8, 16, 32, 64, 128 and 256 μM). Cell viability was assessed using the CCK-8 assay.
NRK-52E cells were seeded in 96-well plates at a density of 5 × 10^4 cells/mL and incubated for 24 h at 37 °C. Following pretreatment with various concentrations of JBP485 (7.8125, 15.625, 31.25, 62.5, 125, and 250 μM) for 2.5 h, the cells were challenged with AAI (11 μM) for 24 h. Cell viability was subsequently assayed using a CCK-8 kit.

NRK-52E cells [3] = assay: Intracellular ROS level by DCFH-DA flow cytometry; format: cell-based, rat
Experimental: NRK-52E cells were plated in 6-well culture plates at a density of 5 ×10^4 cells/mL and treated with various concentrations of JBP485 (62.5, 125 and 250 μM) for 2.5 h. After challenge with AAI (11 μM) for 24 h, the cells were harvested and resuspended in 500 μL of DCFH-DA (10 μM) for the detection of ROS by flow cytometry (Becton Dickinson, United States) (Aagaard et al., 2014).

rat kidney slices = assay: In vitro uptake of AAI in kidney slices; format: in vitro ADME; conditions: AAI 1 μM, JBP485 500 μM
Experimental: Rat kidneys were cut into slices with a ZQP-86 tissue slicer (Zhixin Co. Ltd., China), as previously described ([Wang et al., 2014]). After preincubation for 3 min at 37°C, the kidney slices were transferred to 24-well culture plates containing 1 mL of fresh oxygenated buffer with AAI (1 μM) and/or JBP485 (500 μM) and further incubated at 37 °C with gentle shaking. After incubation for 5, 15, and 30 min, the slices were washed with ice-cold Hanks’ balanced salt solution (pH 7.5). The amount of AAI accumulated in the homogenized kidneys was determined by LC–MS/MS.
The concentrations of the test compounds in plasma, urine, and cell lysates were determined using an Agilent HP1200 liquid chromatography system (Agilent Technology Inc., SC, CA, United States) and an API 3200 triple-quadrupole mass spectrometer (Applied Biosystems, SC, CA, United States). After protein precipitation using acetonitrile, the analyte was separated on a Hypersil BDS C18 column. The mobile phase consisted of acetonitrile and water containing 0.1% (v/v) formic acid (80:20, v/v). The flow rate was 0.4 mL/min. The mass spectrometer was equipped with an electrospray ionization (ESI) source. Data were acquired in positive ion mode and dynamic multiple reaction monitoring (MRM) mode. […]

[4] = AAI 4 mg/kg with or without JBP485 50 mg/kg, n = 5

SMILES: COc1cccc2c1cc([N+](=O)[O-])c1c(C(=O)O)cc3c(c12)OCO3 [AAI, Aristolochic Acid I]
- AUC0-∞ of AAI [1, 4]: 536.2 ± 14.3 µg·min/L
- AUC(0-t) of AAI [1, 4]: 496.0 ± 14.5 µg·min/L
- CLR (renal clearance) of AAI [1, 4]: 1.24 ± 0.09 L/min/kg
- CLp (plasma clearance) of AAI [1, 4]: 7.5 ± 0.2 L/min/kg
- Vd of AAI [1, 4]: 232.9 ± 13.0 L/kg
- t1/2β of AAI [1, 4]: 96.6 ± 6.41 min
- Km (hOAT3; hOAT3-HEK293 cells, with or without JBP485, Eadie-Hofstee, n = 3): 30.6 ± 1.2 µM
- Vmax of AAI uptake (hOAT3; hOAT3-HEK293 cells, with or without JBP485, n = 3): 0.077 ± 0.03 nmol/mg protein/1min
- concentration at which proliferation of NRK-52E cells is significantly inhibited (as low as) (NRK-52E cells [2]; CCK-8): 2 µM
- IC50 (NRK-52E cells [2]; CCK-8, read-out: IC50 for NRK-52E cells (cytotoxicity)): 11 µM
- ROS generation in NRK-52E cells (NRK-52E cells [3]; AAI alone 11 μM 24 h vs control): significant increase

SMILES: O=C1N[C@@H](CO)C(=O)N2C[C@H](O)C[C@@H]12 (relative stereo) [JBP485, cyclo-trans-4-L-hydroxyprolyl-L-serine]
- cumulative urinary excretion of AAI over 8 h ([1]; co-treatment with JBP485 50 mg/kg vs AAI 4 mg/kg alone): reduction
- AAI plasma concentrations ([1]; concurrent JBP485 50 mg/kg vs AAI 4 mg/kg alone): significantly increased
- type of inhibition of AAI uptake (hOAT3; hOAT3-HEK293 cells, Km increased, Vmax unchanged): competitive inhibition
- IC50 (hOAT3; hOAT3-transfected HEK293 cells, substrate AAI, read-out: IC50 of inhibition of AAI uptake, OAT3): 91 ± 10.3 µM
- survival rates of NRK-52E cells challenged with AAI (NRK-52E cells [2]; JBP485 7.8125-250 μM pretreatment 2.5 h, AAI 11 μM 24 h): dose-dependently increased
- toxicity against NRK-52E cells (NRK-52E cells [2]; JBP485 alone, concentrations up to 256 μM): no JBP485-related toxicity
- ROS production in NRK-52E cells (NRK-52E cells [3]; JBP485 alone vs control): did not alter
- AAI-induced rise in ROS production in NRK-52E cells (NRK-52E cells [3]; JBP485 co-administered with AAI 11 μM): significantly attenuated
- AAI uptake in kidney slices (rat kidney slices): inhibited
